pIC50: −log10 of the molar value.
Tested on: K98450-129-R-PDC multicell spheroids, viability
Assay: Anticancer human tumor K98450-129-R-PDC patient-derived colon adenocarcinoma cell line growth inhibition [PI3K]
Details: for pIC50: curve of first compound; for viability, T/C: stronger effect = lower value
Summary of the method: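 Agents were dosed from a top concentration near clinical Cmax (otherwise 10 microM) in half-log decrements, alone or combined with PI3K inhibitors. The spheroids contain tumor cells plus endothelial (HUVEC) and MSC stroma; viability is measured.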
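Also: spheroids exposed to agents for seven days before read-out.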

Cn1ncnc1[C@H]1c2n[nH]c(=O)c3cc(F)cc(c23)N[C@@H]1c1ccc(F)cc1 + COc1c(OCCCN2CCOCC2)ccc2c3n(c(=NC(=O)c4cnc(N)nc4)nc12)CCN3
pIC50 (second compound 0.00316 µM): < 7.00 | pIC50 (second compound 0.01 µM): < 7.00 | pIC50 (second compound 0.0316 µM): < 7.00 | pIC50 (second compound 0.1 µM): < 7.00 | pIC50 (second compound 0.316 µM): < 7.00 | pIC50 (second compound 1 µM): < 7.00 | viability, T/C (second compound 0.00316 µM, first compound 0.000316 µM): 98.6% | viability, T/C (second compound 0.00316 µM, first compound 0.001 µM): 95.2% | viability, T/C (second compound 0.00316 µM, first compound 0.00316 µM): 96.7% | viability, T/C (second compound 0.00316 µM, first compound 0.01 µM): 98% | viability, T/C (second compound 0.00316 µM, first compound 0.0316 µM): 100% | viability, T/C (second compound 0.00316 µM, first compound 0.1 µM): 92.9% | viability, T/C (second compound 0.01 µM, first compound 0.000316 µM): 91.8% | viability, T/C (second compound 0.01 µM, first compound 0.001 µM): 89.6% | viability, T/C (second compound 0.01 µM, first compound 0.00316 µM): 95.1% | viability, T/C (second compound 0.01 µM, first compound 0.01 µM): 96.9% | viability, T/C (second compound 0.01 µM, first compound 0.0316 µM): 94.6% | viability, T/C (second compound 0.01 µM, first compound 0.1 µM): 91.9% | viability, T/C (second compound 0.0316 µM, first compound 0.000316 µM): 90.1% | viability, T/C (second compound 0.0316 µM, first compound 0.001 µM): 88.7% | viability, T/C (second compound 0.0316 µM, first compound 0.00316 µM): 94.5% | viability, T/C (second compound 0.0316 µM, first compound 0.01 µM): 90.6% | viability, T/C (second compound 0.0316 µM, first compound 0.0316 µM): 89.5% | viability, T/C (second compound 0.0316 µM, first compound 0.1 µM): 70.1% | viability, T/C (second compound 0.1 µM, first compound 0.000316 µM): 92.3% | viability, T/C (second compound 0.1 µM, first compound 0.001 µM): 85.5% | viability, T/C (second compound 0.1 µM, first compound 0.00316 µM): 88.6% | viability, T/C (second compound 0.1 µM, first compound 0.01 µM): 89.8% | viability, T/C (second compound 0.1 µM, first compound 0.0316 µM): 89.5% | viability, T/C (second compound 0.1 µM, first compound 0.1 µM): 78.6% | viability, T/C (second compound 0.316 µM, first compound 0.000316 µM): 56.6% | viability, T/C (second compound 0.316 µM, first compound 0.001 µM): 63.6% | viability, T/C (second compound 0.316 µM, first compound 0.00316 µM): 64.5% | viability, T/C (second compound 0.316 µM, first compound 0.01 µM): 48.5% | viability, T/C (second compound 0.316 µM, first compound 0.0316 µM): 59.1% | viability, T/C (second compound 0.316 µM, first compound 0.1 µM): 65.4% | viability, T/C (second compound 1 µM, first compound 0.000316 µM): 49.9% | viability, T/C (second compound 1 µM, first compound 0.001 µM): 58% | viability, T/C (second compound 1 µM, first compound 0.00316 µM): 52.8% | viability, T/C (second compound 1 µM, first compound 0.01 µM): 62% | viability, T/C (second compound 1 µM, first compound 0.0316 µM): 56.5% | viability, T/C (second compound 1 µM, first compound 0.1 µM): 54.1%

Cn1cnc2c(F)c(Nc3ccc(Br)cc3Cl)c(C(=O)NOCCO)cc21 + CC(Nc1ncnc2nc[nH]c12)c1cc2cccc(Cl)c2c(=O)n1-c1ccccc1
pIC50 (second compound 0.0316 µM): 6.05 | pIC50 (second compound 0.1 µM): 6.01 | pIC50 (second compound 0.316 µM): 6.04 | pIC50 (second compound 1 µM): 6.16 | pIC50 (second compound 3.16 µM): 6.09 | pIC50 (second compound 10 µM): 6.14 | viability, T/C (second compound 0.0316 µM, first compound 0.00949 µM): 95.4% | viability, T/C (second compound 0.0316 µM, first compound 0.03 µM): 99.9% | viability, T/C (second compound 0.0316 µM, first compound 0.0949 µM): 86.3% | viability, T/C (second compound 0.0316 µM, first compound 0.3 µM): 70.7% | viability, T/C (second compound 0.0316 µM, first compound 0.949 µM): 50.1% | viability, T/C (second compound 0.0316 µM, first compound 3 µM): 24.9% | viability, T/C (second compound 0.1 µM, first compound 0.00949 µM): 99.5% | viability, T/C (second compound 0.1 µM, first compound 0.03 µM): 88.6% | viability, T/C (second compound 0.1 µM, first compound 0.0949 µM): 82.2% | viability, T/C (second compound 0.1 µM, first compound 0.3 µM): 91.5% | viability, T/C (second compound 0.1 µM, first compound 0.949 µM): 50.9% | viability, T/C (second compound 0.1 µM, first compound 3 µM): 24.2% | viability, T/C (second compound 0.316 µM, first compound 0.00949 µM): 100% | viability, T/C (second compound 0.316 µM, first compound 0.03 µM): 103% | viability, T/C (second compound 0.316 µM, first compound 0.0949 µM): 80.2% | viability, T/C (second compound 0.316 µM, first compound 0.3 µM): 65% | viability, T/C (second compound 0.316 µM, first compound 0.949 µM): 57.2% | viability, T/C (second compound 0.316 µM, first compound 3 µM): 16% | viability, T/C (second compound 1 µM, first compound 0.00949 µM): 89.8% | viability, T/C (second compound 1 µM, first compound 0.03 µM): 78.4% | viability, T/C (second compound 1 µM, first compound 0.0949 µM): 77.3% | viability, T/C (second compound 1 µM, first compound 0.3 µM): 71.7% | viability, T/C (second compound 1 µM, first compound 0.949 µM): 41.9% | viability, T/C (second compound 1 µM, first compound 3 µM): 22.2% | viability, T/C (second compound 3.16 µM, first compound 0.00949 µM): 92.8% | viability, T/C (second compound 3.16 µM, first compound 0.03 µM): 80.4% | viability, T/C (second compound 3.16 µM, first compound 0.0949 µM): 80.9% | viability, T/C (second compound 3.16 µM, first compound 0.3 µM): 57.9% | viability, T/C (second compound 3.16 µM, first compound 0.949 µM): 55.9% | viability, T/C (second compound 3.16 µM, first compound 3 µM): 15.5% | viability, T/C (second compound 10 µM, first compound 0.00949 µM): 87.8% | viability, T/C (second compound 10 µM, first compound 0.03 µM): 85.6% | viability, T/C (second compound 10 µM, first compound 0.0949 µM): 70% | viability, T/C (second compound 10 µM, first compound 0.3 µM): 76.4% | viability, T/C (second compound 10 µM, first compound 0.949 µM): 42% | viability, T/C (second compound 10 µM, first compound 3 µM): 14.1%

— PubChem BioAssay AID1963961 (Molecular Pharmacology Branch, DTP, NCI, 2024)
